Assay results taken from the NIST ThermoML archive (doi:10.1021/je040006u).

Assay: xn = mol fraction of the nth substance listed
Conditions: 101.3 kPa, Liquid, Pycnometric method

CCCNCCC [dipropylamine] + COCCO
mass density [kg/m3]
Conditions | 298.15 K | 303.15 K | 308.15 K
x2 = 0 | – | 728.2 | 723.64
x2 = 0.0501 | – | 735.86 | 731.07
x2 = 0.1 | – | 743.91 | 739.04
x2 = 0.1502 | – | 752.27 | 747.36
x2 = 0.2001 | – | 760.85 | 755.94
x2 = 0.2508 | – | 769.92 | 764.98
x2 = 0.2999 | – | 778.97 | 774.07
x2 = 0.3502 | – | 788.57 | 783.65
x2 = 0.4 | – | 798.45 | 793.51
x2 = 0.45 | – | 808.82 | 803.85
x2 = 0.4999 | 824.3 | 819.53 | 814.5
x2 = 0.5507 | 835.6 | 830.8 | 825.78
x2 = 0.5982 | 846.6 | 841.77 | 836.69
x2 = 0.6502 | 859.11 | 854.24 | 849.17
x2 = 0.6999 | 871.47 | 866.58 | 861.5
x2 = 0.7489 | 884.21 | 879.3 | 874.18
x2 = 0.8015 | 898.54 | 893.64 | 888.51
x2 = 0.8496 | 912.15 | 907.23 | 902.13
x2 = 0.8997 | 927.21 | 922.3 | 917.11
x2 = 0.9497 | 943.1 | 938.3 | 933.24
